Laboratory results taken from ChEMBL document CHEMBL1142710, “3D-QSAR comparative molecular field analysis on opioid receptor antagonists: pooling data from different studies” (J Med Chem, 2005).

Assays:
[1] = biological target: Delta-type opioid receptor (Rattus norvegicus, UniProt P33533); assay: Binding affinity against Opioid receptor delta 1 from rat brain membranes using [3H]DADLE
Mu-type opioid receptor = Mu-type opioid receptor (Rattus norvegicus, UniProt P33535); assay: Binding affinity against Opioid receptor mu 1 from rat brain membranes using [3H]DAMGO
[2] = biological target: Kappa-type opioid receptor (Cavia porcellus, UniProt P41144); assay: Binding affinity against Opioid receptor kappa 1 from guinea pig brain membranes using [3H]U-69593
Chain of Kappa-type opioid receptor (P41144 whole entry): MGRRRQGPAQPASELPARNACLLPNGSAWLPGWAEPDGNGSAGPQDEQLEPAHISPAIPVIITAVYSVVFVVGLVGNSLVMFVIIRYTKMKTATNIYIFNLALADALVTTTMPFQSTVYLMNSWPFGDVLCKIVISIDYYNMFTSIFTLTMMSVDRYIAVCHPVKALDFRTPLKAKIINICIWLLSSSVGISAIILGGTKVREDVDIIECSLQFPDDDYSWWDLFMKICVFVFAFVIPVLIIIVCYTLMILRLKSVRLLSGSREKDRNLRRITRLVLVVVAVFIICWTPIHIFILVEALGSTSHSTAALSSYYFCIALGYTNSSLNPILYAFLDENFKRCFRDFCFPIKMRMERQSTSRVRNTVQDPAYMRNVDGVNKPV

Chain of Mu-type opioid receptor (P33535 whole entry): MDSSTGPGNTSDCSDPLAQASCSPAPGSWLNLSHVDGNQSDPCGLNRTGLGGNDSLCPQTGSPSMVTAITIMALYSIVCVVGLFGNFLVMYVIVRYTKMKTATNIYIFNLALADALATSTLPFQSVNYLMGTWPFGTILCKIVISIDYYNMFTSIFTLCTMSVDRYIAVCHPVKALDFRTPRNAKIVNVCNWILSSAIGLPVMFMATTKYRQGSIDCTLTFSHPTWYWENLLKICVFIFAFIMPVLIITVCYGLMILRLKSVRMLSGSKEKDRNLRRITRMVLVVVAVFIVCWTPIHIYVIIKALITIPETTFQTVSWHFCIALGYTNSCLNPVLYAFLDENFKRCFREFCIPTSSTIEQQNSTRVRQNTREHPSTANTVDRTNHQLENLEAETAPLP
Chain of Delta-type opioid receptor (P33533 whole entry): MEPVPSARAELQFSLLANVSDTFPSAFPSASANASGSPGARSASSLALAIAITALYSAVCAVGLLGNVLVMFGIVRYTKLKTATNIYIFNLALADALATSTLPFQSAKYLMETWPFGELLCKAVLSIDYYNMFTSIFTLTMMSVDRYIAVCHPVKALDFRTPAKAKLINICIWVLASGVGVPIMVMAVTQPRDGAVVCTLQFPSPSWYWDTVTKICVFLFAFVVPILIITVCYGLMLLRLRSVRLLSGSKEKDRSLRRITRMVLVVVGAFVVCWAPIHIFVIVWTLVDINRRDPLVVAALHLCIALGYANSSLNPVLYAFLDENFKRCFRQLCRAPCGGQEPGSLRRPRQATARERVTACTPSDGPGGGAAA

Row | Structure (SMILES) | Ki [1] | Ki (Mu-type opioid receptor) | Ki [2]
1 | Cc1ccc2c3c1O[C@@H]1c4[nH]c5ccccc5c4C[C@@]4(O)[C@@H](C2)N(CC2CC2)CC[C@]314 | 70.8 nM |  | 
2 | CN1CC[C@]23c4c5ccc(O)c4O[C@@H]2c2[nH]c4ccccc4c2C[C@H]3[C@H]1C5 | 2.4 nM | 708 nM | 
3 | CO[C@@]12CCC(=O)CC13CCN(CC1CC1)C2Cc1cccc(OCc2ccccc2)c13 (some centres undefined) | 214 nM | 11.5 nM | 56.2 nM
4 | Oc1ccc2c3c1O[C@@H]1c4[nH]c5c(-c6ccccc6)cccc5c4C[C@@]4(O)[C@@H](C2)N(CC2CC2)CC[C@]314 | 2.09 nM | 123 nM | 309 nM
5 | Oc1ccc2c3c1O[C@H]1c4[nH]c5ccccc5c4C[C@@]4(O)[C@@H](C2)N(CC2CC2)CC[C@]314 [NALTRINDOLE] |  |  | 26.9 nM
6 | CN1CCC23c4c5ccc(O)c4O[C@H]2c2ncc(-c4ccccc4)cc2C[C@@]3(O)C1C5 (some centres undefined) | 2.88 nM | 25.7 nM | 363 nM
7 | C=C(C)CN1CCC23c4c5ccc(O)c4O[C@H]2C(=O)C2(CCc4ccccc42)C[C@@]3(O)C1C5 (some centres undefined) | 40.7 nM | 2000 nM | 1000 nM
8 | Oc1ccc2c3c1O[C@@H]1c4[nH]c5cc(-c6ccccc6)ccc5c4C[C@@]4(O)[C@@H](C2)N(CC2CC2)CC[C@]314 | 18.2 nM | 1290 nM | 631 nM
9 | CN1CCC23c4c5ccc(O)c4O[C@H]2c2ncc(-c4ccc(Cl)cc4)cc2C[C@H]3C1C5 (some centres undefined) | 4.37 nM | 148 nM | 77.6 nM
10 | C/C=C/CN1CC[C@]23c4c5ccc(O)c4O[C@@H]2c2[nH]c4ccccc4c2C(C)[C@H]3[C@H]1C5 (some centres undefined) | 2.29 nM | 1020 nM | 120 nM
11 | CCCCC1c2c([nH]c3ccccc23)[C@H]2Oc3c(OC)ccc4c3[C@@]23CCN(C)[C@H](C4)[C@H]13 (some centres undefined) | 372 nM |  | 
12 | CO[C@@]12CCC(=O)CC13CCN(CC1CC1)C2Cc1cccc(OCCCc2ccccc2)c13 (some centres undefined) | 1410 nM | 43.7 nM | 209 nM
13 | Oc1cccc(-c2ccc3c4c2O[C@@H]2c5[nH]c6ccccc6c5C[C@@]5(O)[C@@H](C3)N(CC3CC3)CC[C@]425)c1 | 1620 nM |  | 
14 | O[C@@]12Cc3c([nH]c4ccccc34)[C@H]3Oc4c(-c5ccccc5)ccc5c4[C@@]31CCN(CC1CC1)[C@@H]2C5 | 10500 nM |  | 
15 | CCCCC1c2c([nH]c3ccccc23)[C@H]2Oc3c(O)ccc4c3[C@@]23CCN(C)[C@H](C4)[C@H]13 (some centres undefined) | 21.9 nM | 1100 nM | 724 nM
16 | O=C(Oc1ccc2[nH]c3c(c2c1)C[C@@]1(O)[C@H]2Cc4ccc(O)c5c4[C@@]1(CCN2CC1CC1)[C@@H]3O5)c1ccccc1 | 4.37 nM | 81.3 nM | 81.3 nM
17 | CC1c2c([nH]c3ccccc23)[C@H]2Oc3c(O)ccc4c3[C@@]23CCN(C)[C@H](C4)[C@H]13 (some centres undefined) | 0.708 nM | 240 nM | 126 nM
18 | Oc1ccc2c3c1O[C@@H]1c4[nH]c5ccc(Oc6ccccc6)cc5c4C[C@@]4(O)[C@@H](C2)N(CC2CC2)CC[C@]314 | 17.8 nM | 295 nM | 75.9 nM
19 | CC1CN(CCCc2ccccc2)C2CC(NC(=O)CCCN(C)C)CC1(c1cccc(O)c1)C2 (centres undefined) | 1450 nM | 57.5 nM | 12 nM
20 | O=C1CC[C@@]2(OCCCc3ccccc3)C3Cc4cccc(O)c4C2(CCN3CC2CC2)C1 (some centres undefined) | 5.01 nM | 0.398 nM | 5.89 nM
21 | Oc1ccc2c3c1O[C@H]1c4ncc(-c5ccccc5)cc4C[C@@]4(O)C(C2)N(CC2CC2)CCC314 (some centres undefined) | 0.871 nM | 13.5 nM | 17.8 nM

Row | Structure (SMILES) | Ki [1] | Ki (Mu-type opioid receptor) | Ki [2]
22 | CN1CCC23c4c5ccc(O)c4O[C@H]2c2ncc(-c4ccc(Cl)c(Cl)c4)cc2C[C@H]3C1C5 (some centres undefined) | 3.72 nM | 93.3 nM | 275 nM
23 | CCN1CC[C@]23CC4Nc5ccccc5C4C[C@H]2C1Cc1ccc(OC)c(O)c13 (some centres undefined) | 513 nM | 1350 nM | 3630 nM
24 | C=Cc1ccc2c3c1O[C@@H]1c4[nH]c5ccccc5c4C[C@@]4(O)[C@@H](C2)N(CC2CC2)CC[C@]314 | 61.7 nM |  | 17800 nM
25 | O=C(Oc1cccc2c3c([nH]c12)[C@H]1Oc2c(O)ccc4c2[C@@]12CCN(CC1CC1)[C@H](C4)[C@]2(O)C3)c1ccccc1 | 3.09 nM | 158 nM | 257 nM
26 | C=C(C)CN1CCC23c4c5ccc(OC)c4O[C@H]2c2oc4ccccc4c2C[C@@]3(O)C1C5 (some centres undefined) | 43.7 nM |  | 
27 | CN1CCC23c4c5ccc(O)c4O[C@H]2c2ncc(-c4ccc(Br)cc4)cc2C[C@@]3(O)C1C5 (some centres undefined) | 3.98 nM | 195 nM | 437 nM
28 | CCO[C@@]12Cc3c([nH]c4ccccc34)[C@]3(C)Oc4c(O)ccc5c4[C@@]31CCN(C)[C@@H]2C5 |  |  | 288 nM
29 | Oc1ccc2c3c1O[C@H]1c4nccc(-c5ccccc5)c4C[C@@]4(O)C(C2)N(CC2CC2)CCC314 (some centres undefined) | 72.4 nM | 191 nM | 263 nM
30 | COc1ccc2c(c1O)[C@]13CCN(CC4CC4)C(C2)[C@]1(O)CC1c2ccccc2NC1C3 (some centres undefined) | 21.9 nM | 1860 nM | 3160 nM
31 | Oc1ccc2c3c1O[C@H]1c4nc(-c5ccccc5)ncc4C[C@@]4(O)C(C2)N(CC2CC2)CCC314 (some centres undefined) | 15.8 nM | 21.9 nM | 11 nM
32 | CC(C)N1CC[C@]23c4c5ccc(O)c4O[C@@H]2c2[nH]c4ccccc4c2C[C@@]3(O)[C@H]1C5 | 33.1 nM |  | 6170 nM
33 | CN1CCC23c4c5ccc(O)c4O[C@H]2c2ncc(-c4ccc(Br)cc4)cc2C[C@H]3C1C5 (some centres undefined) | 5.01 nM | 200 nM | 91.2 nM
34 | CCCCCCN1CC[C@]23c4c5ccc(O)c4O[C@@H]2c2[nH]c4ccccc4c2C[C@@]3(O)[C@H]1C5 | 25.7 nM | 4570 nM | 3090 nM
35 | COc1ccc2c(c1O)[C@]13CCN(CC4CC4)C(C2)[C@@H]1CC1c2ccccc2NC1C3 (some centres undefined) | 7.08 nM | 13200 nM | 7940 nM
36 | C=C(C)CN1CCC23c4c5ccc(O)c4O[C@H]2c2oc4ccccc4c2C[C@@]3(O)C1C5 (some centres undefined) | 8.13 nM | 1290 nM | 575 nM
37 | Oc1ccc2c3c1O[C@H]1c4ncncc4C[C@@]4(O)C(C2)N(CC2CC2)CCC314 (some centres undefined) | 3.47 nM | 4.17 nM | 6.31 nM
38 | CCCCCN1CC[C@]23c4c5ccc(O)c4O[C@@H]2c2[nH]c4ccccc4c2C[C@@]3(O)[C@H]1C5 | 15.8 nM | 2820 nM | 2000 nM
39 | Oc1ccc2c3c1O[C@H]1c4ncccc4C[C@@]4(O)C(C2)N(CC2CC2)CCC314 (some centres undefined) | 0.776 nM | 1.51 nM | 8.71 nM
40 | CN1CCC23c4c5ccc(O)c4O[C@H]2c2ncc(-c4ccccc4)cc2C[C@H]3C1C5 (some centres undefined) | 4.9 nM | 24 nM | 81.3 nM
41 | O=C(Oc1cccc2[nH]c3c(c12)C[C@@]1(O)[C@H]2Cc4ccc(O)c5c4[C@@]1(CCN2CC1CC1)[C@@H]3O5)c1ccccc1 | 14.8 nM | 363 nM | 537 nM
42 | C=C(C)CN1CC[C@]23c4c5ccc(OC)c4O[C@@H]2c2[nH]c4ccccc4c2C[C@@]3(O)[C@H]1C5 | 501 nM |  | 

Row | Structure (SMILES) | Ki [1] | Ki (Mu-type opioid receptor) | Ki [2]
43 | Oc1ccc2c3c1O[C@@H]1c4[nH]c5ccc(/C=C/c6ccccn6)cc5c4C[C@@]4(O)[C@@H](C2)N(CC2CC2)CC[C@]314 | 3.72 nM | 75.9 nM | 20 nM
44 | CC(C)CN1CC[C@]23c4c5ccc(O)c4O[C@@H]2c2[nH]c4ccccc4c2C[C@@]3(O)[C@H]1C5 | 3.8 nM | 2570 nM | 646 nM
45 | Oc1ccc2c3c1O[C@H]1c4nc(-c5ccccc5)ccc4C[C@@]4(O)C(C2)N(CC2CC2)CCC314 (some centres undefined) | 1.78 nM | 11 nM | 18.2 nM
46 | C=C(C)CN1CCC23c4c5ccc(O)c4O[C@H]2c2[nH]ncc2C[C@@]3(O)C1C5 (some centres undefined) | 39.8 nM | 141 nM | 38 nM
47 | Oc1ccc2c3c1O[C@@H]1c4[nH]c5cccc(-c6ccccc6)c5c4C[C@@]4(O)[C@@H](C2)N(CC2CC2)CC[C@]314 | 52.5 nM | 1510 nM | 2950 nM
48 | CN1CCC23c4c5ccc(O)c4O[C@H]2c2ncc(-c4ccc(Cl)cc4Cl)cc2C[C@H]3C1C5 (some centres undefined) | 1.1 nM | 97.7 nM | 407 nM
49 | CC1c2c([nH]c3ccccc23)[C@H]2Oc3c(O)ccc4c3[C@@]23CCN(CC2CC2)[C@H](C4)[C@H]13 (some centres undefined) | 2.29 nM | 66.1 nM | 36.3 nM
50 | CCO[C@@]12Cc3c([nH]c4ccccc34)[C@]3(C)Oc4c(O)ccc5c4C31CCN(CC1CC1)[C@@H]2C5 | 0.794 nM | 38.9 nM | 58.9 nM
51 | O[C@@]12Cc3c([nH]c4ccccc34)[C@H]3Oc4c(-c5ccco5)ccc5c4[C@@]31CCN(CC1CC1)[C@@H]2C5 | 955 nM |  | 
52 | COc1ccc2c(c1O)[C@]13CCN(C)C(C2)[C@@H]1CC1c2ccccc2NC1C3 (some centres undefined) | 93.3 nM | 2820 nM | 
53 | C=C(C)CN1CCC23c4c5ccc(OC)c4O[C@H]2c2ncc(-c4ccc(Cl)cc4)cc2C[C@@]3(O)C1C5 (some centres undefined) | 257 nM |  | 3240 nM
54 | COc1ccc2c3c1O[C@@H]1c4[nH]c5ccccc5c4C(C)[C@H]4[C@@H](C2)N(C)CC[C@]314 (some centres undefined) | 26.9 nM |  | 
55 | COc1ccc2c3c1O[C@@H]1c4[nH]c5ccccc5c4C[C@H]4[C@@H](C2)N(C)CC[C@]314 | 95.5 nM |  | 
56 | COc1ccc2c(c1O)[C@]13CCN(C)C(C2)[C@]1(O)CC1c2ccccc2NC1C3 (some centres undefined) | 219 nM | 2820 nM | 
57 | C=C(C)CN1CCC23c4c5ccc(O)c4O[C@H]2c2ncc(-c4ccc(Cl)cc4)cc2C[C@@]3(O)C1C5 (some centres undefined) | 15.8 nM |  | 302 nM
58 | C=C(C)CN1CCC23c4c5ccc(OC)c4O[C@H]2c2[nH]ncc2C[C@@]3(O)C1C5 (some centres undefined) | 2400 nM |  | 3090 nM
59 | C=C(C)CN1CCC23c4c5ccc(OC)c4O[C@H]2C(=O)/C(=C\c2ccccc2)C[C@@]3(O)C1C5 (some centres undefined) | 3390 nM |  | 
60 | CCCCCCCN1CC[C@]23c4c5ccc(O)c4O[C@@H]2c2[nH]c4ccccc4c2C[C@@]3(O)[C@H]1C5 | 79.4 nM | 4570 nM | 
61 | CCN1CC[C@]23CC4Nc5ccccc5C4C[C@@]2(O)C1Cc1ccc(OC)c(O)c13 (some centres undefined) | 692 nM | 794 nM | 
